Type in all cases: cell-based
One assay concerns P. morganii GN5407. Kind of assay: MIC, P. morganii GN5407. Conditions: Morganella morganii. The procedure: (§1) The minimum inhibition concentrations (MIC) of the compounds obtained by the present invention were measured according to the standard method of Japanese Chemotherapy Association.
For another assay, the system named is E. coli W3630/Rms212. Kind of assay: MIC, E. coli W3630/Rms212. The following applies: Escherichia coli. How it is done: as §1
The test system of a further assay is E. coli W3630/Rms213. Kind of assay: MIC, E. coli W3630/Rms213. Conditions: Escherichia coli. The procedure:
as §1

In another assay the test system is P. rettgeri GN4430. Kind of assay: MIC, P. rettgeri GN4430. The following applies: Providencia rettgeri. How it is done: as §1
The next assay concerns E. coli W3630/Rte16. Kind of assay: MIC, E. coli W3630/Rte16. Conditions: Escherichia coli. The procedure: as §1
The subject of a further assay is S. marcescens GN10851. Kind of assay: MIC, S. marcescens GN10851. Conditions: Serratia marcescens. How it is done: as §1
A further assay concerns C. freundii GN7391. In words: MIC, C. freundii GN7391. The following applies: Citrobacter freundii. How it is done: as §1
In the next assay the test system is E. cloacae GN7471. Kind of assay: MIC, E. cloacae GN7471. The following applies: Enterobacter cloacae. The procedure:
as §1

Another assay relates to E. Coli GN5482. In words: MIC, E. Coli GN5482. Conditions: Escherichia coli. How it is done: as §1
Another assay relates to P. aeruginosa GN10. In words: MIC, P. aeruginosa GN10. The following applies: Pseudomonas aeruginosa. The procedure:
as §1

The next assay deals with P. vulgaris GN7919. In words: MIC, P. vulgaris GN7919. The following applies: Proteus vulgaris. The procedure: as §1
For the next assay, the system named is S. typhimurium IFO 12529. Kind of assay: MIC, S. typhimurium IFO 12529. Conditions: Salmonella enterica, read-out: MIC. How it is done:
as §1

In the next assay the test system is P. mirabilis IFO3849. In words: MIC, P. mirabilis IFO3849. Conditions: Proteus mirabilis, read-out: MIC. The procedure: as §1
In the next assay the test system is S. typhimurium ATCC13311. Kind of assay: MIC, S. typhimurium ATCC13311. The following applies: Salmonella enterica, read-out: MIC. How it is done: as §1
For the next assay, the system named is P. rettgeri ATCC14505. In words: MIC, P. rettgeri ATCC14505. The following applies: Providencia rettgeri, read-out: MIC. The procedure:
as §1

A further assay has as its system S. aureus 209P JC-1. Kind of assay: MIC, S. aureus 209P JC-1. The following applies: Staphylococcus aureus; S. aureus 209P JC-1; read-out: MIC. The procedure:
as §1

Another assay concerns P. aeruginosa ATCC9721. Kind of assay: MIC, P. aeruginosa ATCC9721. The following applies: Pseudomonas aeruginosa; P. aeruginosa ATCC9721; read-out: MIC. The procedure: as §1
The next assay has as its system S. aureus TASAKI. Kind of assay: MIC, S. aureus TASAKI. The following applies: Staphylococcus aureus; S. aureus TASAKI; standard method of Japanese Chemotherapy Association; read-out: MIC. How it is done:
as §1

The test system of a further assay is S. paratyphi C 33-76. Kind of assay: MIC, S. paratyphi C 33-76. Conditions: Salmonella enterica, PARATYPHI
The procedure: as §1

Another assay relates to E. coli NIHJ JC-2. Kind of assay: MIC, E. coli NIHJ JC-2. Conditions: Escherichia coli, NIHJJC2, read-out: MIC. How it is done:
as §1

A further assay concerns S. flexneri Y NCTC 9730. Kind of assay: MIC, S. flexneri Y NCTC 9730. Conditions: Shigella flexneri, NCTC9730, read-out: MIC. How it is done: as §1
In another assay the test system is E. coli ATCC25922. Kind of assay: MIC, E. coli ATCC25922. The following applies: Escherichia coli, read-out: MIC. The procedure: as §1
Another assay concerns S. aureus Smith. Kind of assay: MIC, S. aureus Smith. Conditions: Staphylococcus aureus, read-out: MIC. How it is done: as §1
The next assay deals with S. marcescens IFO12648. In words: MIC, S. marcescens IFO12648. The following applies: Serratia marcescens, read-out: MIC. How it is done:
as §1

The test system of another assay is S. paratyphi B. Kind of assay: MIC, S. paratyphi B. Conditions: Salmonella enterica, PARATYPHI
The procedure:
as §1

Another assay deals with S. anatum 677-69. Kind of assay: MIC, S. anatum 677-69. Conditions: Salmonella enterica, 67769, read-out: MIC. The procedure: as §1
A further assay relates to S. paratyphi A 144-12-93. Kind of assay: MIC, S. paratyphi A 144-12-93. Conditions: Salmonella enterica, PARATYPHI
The procedure:
as §1

The next assay has as its system C. freundii IFO12681. Kind of assay: MIC, C. freundii IFO12681. The following applies: Citrobacter freundii, read-out: MIC. How it is done:
as §1

The test system of the next assay is S. epidermidis ATCC14990. Kind of assay: MIC, S. epidermidis ATCC14990. The following applies: Staphylococcus epidermidis, read-out: MIC. The procedure: as §1
For a further assay, the system named is P. vulgaris ATCC6398. Kind of assay: MIC, P. vulgaris ATCC6398. Conditions: Proteus vulgaris, read-out: MIC. How it is done:
as §1

A further assay relates to P. cepacia ATCC25416. Kind of assay: MIC, P. cepacia ATCC25416. Conditions: Burkholderia cepacia, read-out: MIC. How it is done:
as §1

The subject of another assay is K. pneumoniae ATCC27736. In words: MIC, K. pneumoniae ATCC27736. Conditions: Klebsiella pneumoniae, read-out: MIC. The procedure:
as §1

For another assay, the system named is B. subtilis ATCC6633. Kind of assay: MIC, B. subtilis ATCC6633. The following applies: Bacillus subtilis; B. subtilis ATCC6633; read-out: MIC. How it is done: as §1
The next assay has as its system S. sonnei SH72-415. Kind of assay: MIC, S. sonnei SH72-415. The following applies: Shigella sonnei, SH72415, read-out: MIC. The procedure:
as §1

Another assay deals with S. aureus ATCC25923. Kind of assay: MIC, S. aureus ATCC25923. Conditions: Staphylococcus aureus; S. aureus ATCC25923; read-out: MIC. The procedure:
as §1

For assay [1], the system named is S. flexneri 2a CDC 4807-62. Kind of assay: MIC, S. flexneri 2a CDC 4807-62. Conditions: Shigella flexneri, read-out: MIC. How it is done: as §1
A further assay relates to S. typhi 1099-77. In words: MIC, S. typhi 1099-77. Conditions: Salmonella enterica, TYPHI. How it is done:
as §1

The next assay concerns S. newport 563. Kind of assay: MIC, S. newport 563. The following applies: Salmonella enterica, read-out: MIC. How it is done:
as §1

For a further assay, the system named is P. fluorescens ATCC13525. In words: MIC, P. fluorescens ATCC13525. Conditions: Pseudomonas fluorescens, read-out: MIC. How it is done: as §1
A further assay deals with S. faecalis IFO3826. In words: MIC, S. faecalis IFO3826. Conditions: Enterococcus faecalis, read-out: MIC. The procedure: as §1
A further assay relates to S. boyadii CDC 2064-59. In words: MIC, S. boyadii CDC 2064-59. How it is done:
as §1

A further assay concerns E. cloacae ATCC13047. Kind of assay: MIC, E. cloacae ATCC13047. The following applies: Enterobacter cloacae. The procedure: as §1
The next assay concerns P. vulgaris ATCC6380. In words: MIC, P. vulgaris ATCC6380. The following applies: Proteus vulgaris, read-out: MIC. The procedure: as §1
The next assay deals with S. dysenteriae 4379-60. Kind of assay: MIC, S. dysenteriae 4379-60. Conditions: Shigella dysenteriae, 437960. How it is done:
as §1

A further assay deals with P. putida ATCC12633. In words: MIC, P. putida ATCC12633. The following applies: Pseudomonas putida. How it is done:
as §1

The subject of another assay is P. maltophilia ATCC13637. Kind of assay: MIC, P. maltophilia ATCC13637. The following applies: Stenotrophomonas maltophilia. The procedure:
as §1

Converted amounts (≈) assume the structure as drawn. Where a name gives a salt, the structure may show the parent alone. Where only a bound is given, the exact number is not on record here.

Broadly, the MIC is the lowest concentration that inhibits growth of the organism.

In the case of `CC(=NNC(=O)NC(C(=O)NC1C(=O)N2C(C(=O)O)=C(CSc3nncs3)CSC12)c1csc(N)n1)c1cccc(O)c1` (stereo not shown) [Example 104], the MIC against P. morganii GN5407 was found to be 0.39 µg/mL (≈ 0.589 µM); with E. coli W3630/Rms212 it was 0.39 µg/mL (≈ 0.589 µM); in the assay on E. coli W3630/Rms213, 0.1 µg/mL (≈ 0.151 µM); in the assay on P. rettgeri GN4430, 0.2 µg/mL (≈ 0.302 µM); against E. coli W3630/Rte16, 0.2 µg/mL (≈ 0.302 µM); with S. marcescens GN10851, 100 µg/mL (≈ 151 µM). Also, the MIC amounted to 100 µg/mL (≈ 151 µM) in the assay on C. freundii GN7391; 3.13 µg/mL (≈ 4.73 µM) in the assay with E. cloacae GN7471; 0.78 µg/mL (≈ 1.18 µM) with E. Coli GN5482; 6.25 µg/mL (≈ 9.44 µM) in the assay on P. aeruginosa GN10; 50 µg/mL (≈ 75.6 µM) in the assay with P. vulgaris GN7919.
With `Cn1nnnc1SCC1=C(C(=O)O)N2C(=O)C(NC(=O)C(=NOCC(=O)NN=Cc3ccc(O)c(O)c3)c3csc(N)n3)C2SC1` (stereo not shown) [Example 2, 7-{2-[2-amino-1,3-thiazol-4-yl]-2-[3-(3,4-dihydroxybenzylidene)carbazoyl]methoxyiminoacetamido}-3-[(1-methyl-1,2,3,4-tetrazol-5-yl)thiomethyl]-3-cephem-4-carboxylic acid.hydrochloride], the MIC is 0.39 µg/mL in the assay on S. typhimurium IFO 12529; 0.2 µg/mL in the assay on P. mirabilis IFO3849; 0.05 µg/mL in the assay on S. typhimurium ATCC13311; 0.39 µg/mL in the assay with P. rettgeri ATCC14505; 0.78 µg/mL in the assay on S. aureus 209P JC-1; 0.2 µg/mL in the assay with P. aeruginosa ATCC9721. In addition, the minimum inhibitory concentration (MIC) came out at 1.56 µg/mL in the assay with S. aureus TASAKI; 0.012 µg/mL with S. paratyphi C 33-76; 0.39 µg/mL in the assay with E. coli NIHJ JC-2; 0.78 µg/mL in the assay on S. flexneri Y NCTC 9730; 0.2 µg/mL in the assay with E. coli ATCC25922; 3.13 µg/mL with S. aureus Smith. Moreover, the MIC in the assay on S. marcescens IFO12648 worked out at 0.39 µg/mL; against S. paratyphi B it was 0.025 µg/mL; with S. anatum 677-69 it was 0.05 µg/mL; with S. paratyphi A 144-12-93, 0.05 µg/mL; in the assay with C. freundii IFO12681 it was 0.39 µg/mL; in the assay with S. epidermidis ATCC14990, 0.78 µg/mL. In addition, the minimal inhibitory concentration (MIC) was found to be 0.05 µg/mL in the assay with P. vulgaris ATCC6398; 0.78 µg/mL with P. cepacia ATCC25416; 0.025 µg/mL with K. pneumoniae ATCC27736; 0.39 µg/mL in the assay with B. subtilis ATCC6633; 0.05 µg/mL in the assay on S. sonnei SH72-415; 0.78 µg/mL in the assay with S. aureus ATCC25923. For the same compound, the MIC was 0.1 µg/mL in [1]; no more than 6 ng/mL with S. typhi 1099-77; 0.05 µg/mL in the assay on S. newport 563; 12.5 µg/mL in the assay with P. fluorescens ATCC13525; greater than 100 µg/mL in the assay on S. faecalis IFO3826; 0.78 µg/mL with S. boyadii CDC 2064-59. The MIC against E. cloacae ATCC13047 is 3.13 µg/mL; in the assay on P. vulgaris ATCC6380, 0.2 µg/mL; against S. dysenteriae 4379-60 it was 0.025 µg/mL; against P. putida ATCC12633, 1.56 µg/mL; in the assay on P. maltophilia ATCC13637, 1.56 µg/mL.

For the origin of these results see patent US4808711A, “Cephalosporin derivatives” (Sankei Pharmaceutical Co., Ltd., priority 1985, dated 1989).
